Assay results taken from PubChem BioAssay AID256 (DTP/NCI, 2004).
Inconclusive results and toxic doses are left out. The calls were made as follows: active = survival T/C of 150% or more; inactive = T/C below 125% in these data.

Tested on: CD2F1 mice, L1210 leukemia ip, survival T/C
Experiment: NCI In Vivo Anticancer Drug Screen. Data for tumor model L1210 Leukemia (intraperitoneal) in CD2F1 (CDF1) mice
Details: higher = longer survival
Method in brief: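 Read-out first: treated-group measurement over vehicle-control measurement, expressed as a ratio. Animals bore a transplanted tumor line and were dosed with compound or vehicle.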

[1] = endpoint: mean survival time, dose: 100.0 mg/kg/injection, schedule: Q01DX001 (ip), vehicle: saline with Tween-80
[2] = endpoint: mean survival time, dose: 200.0 mg/kg/injection, schedule: Q01DX001 (ip), vehicle: saline with Tween-80
[3] = endpoint: mean survival time, dose: 400.0 mg/kg/injection, schedule: Q01DX001 (ip), vehicle: saline with Tween-80
[4] = endpoint: mean survival time, dose: 100.0 mg/kg/injection, schedule: Q04DX003 (ip), vehicle: saline with Tween-80
[5] = endpoint: mean survival time, dose: 200.0 mg/kg/injection, schedule: Q04DX003 (ip), vehicle: saline with Tween-80
[6] = endpoint: mean survival time, dose: 400.0 mg/kg/injection, schedule: Q04DX003 (ip), vehicle: saline with Tween-80
[7] = endpoint: mean survival time, dose: 100.0 mg/kg/injection, schedule: Q01DX009 (ip), vehicle: saline with Tween-80
[8] = endpoint: mean survival time, dose: 200.0 mg/kg/injection, schedule: Q01DX009 (ip), vehicle: saline with Tween-80
[9] = endpoint: mean survival time, dose: 400.0 mg/kg/injection, schedule: Q01DX009 (ip), vehicle: saline with Tween-80

Measured: T/C

ICC(CI)(CI)CI
inactive: [1] 100 % of control | [2] 93 % of control | [3] 100 % of control

O=C1Nc2ccccc2/C1=N/N=P(c1ccccc1)(c1ccccc1)c1ccccc1
inactive: endpoint: median survival time, dose: 50.0 mg/kg/injection, schedule: Q04DX002 (ip), vehicle: saline with Tween-80 100 % of control | endpoint: median survival time, dose: 100.0 mg/kg/injection, schedule: Q04DX002 (ip), vehicle: saline with Tween-80 110 % of control | endpoint: median survival time, dose: 200.0 mg/kg/injection, schedule: Q04DX002 (ip), vehicle: saline with Tween-80 100 % of control | endpoint: median survival time, dose: 400.0 mg/kg/injection, schedule: Q04DX002 (ip), vehicle: saline with Tween-80 100 % of control

O=C(O)C1CCC(CC2CCCCC2)CC1 (stereo not drawn)
inactive: [4] 93 % of control | [5] 94 % of control | [6] 104 % of control

CC(O)C1CCC2C3CCC4CC(O)CCC4(C)C3CCC12C (stereo not drawn)
inactive: [4] 95 % of control | [5] 96 % of control | [6] 101 % of control

C=CCOc1ccc(Cl)cc1Cl
inactive: endpoint: mean survival time, dose: 37.5 mg/kg/injection, schedule: Q01DX009 (ip), vehicle: saline with Tween-80 93 % of control | endpoint: mean survival time, dose: 75.0 mg/kg/injection, schedule: Q01DX009 (ip), vehicle: saline with Tween-80 101 % of control | endpoint: mean survival time, dose: 150.0 mg/kg/injection, schedule: Q01DX009 (ip), vehicle: saline with Tween-80 97 % of control

C(=N\Nc1ccccc1)/c1ccc2c(c1)OCO2
inactive: [1] 100 % of control | [7] 97 % of control | [2] 101 % of control | [8] 104 % of control | [3] 95 % of control | [9] 100 % of control

CCCCOC(=O)COc1ccc(F)cc1F
inactive: endpoint: mean survival time, dose: 100.0 mg/kg/injection, schedule: Q04DX002 (ip), vehicle: saline with Tween-80 95 % of control | endpoint: mean survival time, dose: 200.0 mg/kg/injection, schedule: Q04DX002 (ip), vehicle: saline with Tween-80 100 % of control | endpoint: mean survival time, dose: 400.0 mg/kg/injection, schedule: Q04DX002 (ip), vehicle: saline with Tween-80 92 % of control

CC(=O)C(C(C)=O)C1=C(Cl)C(=O)c2ccccc2C1=O
inactive: endpoint: mean survival time, dose: 75.0 mg/kg/injection, schedule: Q01DX001 (ip), vehicle: other 94 % of control | endpoint: mean survival time, dose: 150.0 mg/kg/injection, schedule: Q01DX001 (ip), vehicle: other 100 % of control | endpoint: mean survival time, dose: 300.0 mg/kg/injection, schedule: Q01DX001 (ip), vehicle: other 97 % of control

CC(C)(C)C1=CC(=O)C(C(C)(C)C)=CC1=O
inactive: [1] 97 % of control | [2] 103 % of control

c1ccc(CCNc2ncnc3nc[nH]c23)cc1
inactive: endpoint: mean survival time, dose: 6.25 mg/kg/injection, schedule: Q01DX005 (ip), vehicle: water 94 % of control | endpoint: mean survival time, dose: 12.5 mg/kg/injection, schedule: Q01DX005 (ip), vehicle: water 96 % of control | endpoint: mean survival time, dose: 25.0 mg/kg/injection, schedule: Q01DX005 (ip), vehicle: water 96 % of control | endpoint: mean survival time, dose: 50.0 mg/kg/injection, schedule: Q01DX005 (ip), vehicle: water 97 % of control | endpoint: mean survival time, dose: 100.0 mg/kg/injection, schedule: Q01DX005 (ip), vehicle: water 92 % of control | endpoint: mean survival time, dose: 200.0 mg/kg/injection, schedule: Q01DX005 (ip), vehicle: water 111 % of control

CC(c1ccc([N+](=O)[O-])cc1)C(O)c1ccccc1 (stereo not drawn)
inactive: [4] 111 % of control | [5] 103 % of control | [6] 102 % of control

Nc1cc(Cl)ccc1C(=O)O
inactive: [7] 103 % of control | [8] 104 % of control | [9] 86 % of control

CC1C(O)=C(c2ccccc2)P(=O)(Cc2ccccc2)C1C (stereo not drawn)
inactive: endpoint: mean survival time, dose: 50.0 mg/kg/injection, schedule: Q01DX009 (ip), vehicle: Klucel (hydroxypropylcellulose) (HPC) 104 % of control | endpoint: mean survival time, dose: 100.0 mg/kg/injection, schedule: Q01DX009 (ip), vehicle: Klucel (hydroxypropylcellulose) (HPC) 93 % of control | endpoint: mean survival time, dose: 200.0 mg/kg/injection, schedule: Q01DX009 (ip), vehicle: Klucel (hydroxypropylcellulose) (HPC) 93 % of control

COC(C)C(O)(c1ccccc1)c1ccccc1 (stereo not drawn)
inactive: endpoint: mean survival time, dose: 50.0 mg/kg/injection, schedule: Q01DX009 (ip), vehicle: saline with Tween-80 101 % of control | [7] 101 % of control | [8] 96 % of control
